Measurements published in patent publication US6541463B1, “Inhibitors of type 5 and type 3 17β-hydroxysteroid dehydrogenase and methods for their use” (Endorecherche, Inc., priority 1998, dated 2003).

Columns and labels:
progesterone receptor = test: Progesterone receptor assay: inhibition of [3H]R5020 binding, uterine cytosol; set-up: species or system rat
Method: The manner in which the percentage of inhibition is determined is described in “Other Tests; E-Progesterone Receptor Assay”. Lower numbers are desirable.
[17α-methyl-^3H]-promegestone (R5020) (84 Ci/mmol) and the corresponding unlabeled compound were purchased from New England Nuclear (Lachine, Québec, Canada). All other chemicals were of analytical grade.
Stock solutions of the unlabeled steroids were kept at 4° C. in ethanol. The desired steroid solutions were then prepared by appropriate dilution in buffer B (10 mM Tris-HCl, 1.5 mM EDTA, 10 mM α-monothioglycerol, pH 7.4) containing 30% ethanol.
Female Sprague-Dawley rats weighing 200-300 g were obtained from Charles-River Inc. (St-Constant, Québec, Canada). The rats were gonadectomized under general anesthesia (Isoflurane) and killed by cervical dislocation 24 hours later. The uteri are rapidly removed, dissected free from adhering tissue and frozen on dry-ice. Tissues were kept at −80° C. until use.
All procedures were performed at 4° C. Tissues were pulverized frozen in dry ice with a Thermovac pulverizer. The samples were then homogenized in 10 vol (w/v) of buffer A (25 mM Tris-HCl, 1.5 mM EDTA, 10 mM α-monothioglycerol, 10% glycerol, 10 mM sodium molybdate, pH 7.4) using a Polytron PT-10 homogenizer (Brinkmann Instruments, Canada) at a setting of 5 for two periods of 10 sec, with intervals of 10 sec for cooling. The homogenate was then centrifuged at 105,000×g for 90 min. The supernatant was used immediately for assay.
Progesterone binding was measured using the dextran-coated charcoal adsorption technique. […] Each concentration was done in triplicate. Assay was ended with 300 μl of DCC (1% Norit A and 0.1% Dextran T-70 in Buffer B). After 10 min of incubation, tubes were centrifuged at 2,000×g for 10 min. and decanted in vials with 6 ml of BCS liquid scintillation (New England Nuclear, Dupont). The radioactivity was measured in a Beckman counter at a counting efficiency of 35%.

[1] = target: T1, human type 2 17β-hydroxysteroid dehydrogenase (Homo sapiens, UniProt P37059); test: Enzymatic assay for type 2 17β-HSD; format: biochemical; conditions: for IC50 / inhibition / Inhibition Type 2 17β-HSD Activity [% Inh. at 3 · 10^−8M]: Table 4′; for IC50: read-out: Inhibition Type 2 17β-HSD Activity IC50; for inhibition / Inhibition Type 2 17β-HSD Activity [% Inh. at 3 · 10^−8M]: 3 · 10^−8M; for inhibition: read-out: Inhibition Type 2 17β-HSD Activity [% Inh. at 3 · 10^−8M]
T1 construct: expressed in transfected cells; host or cells: 293 cells, transient transfection; microsomal fraction (100 000×g pellet)
T1 sequence (P37059 1-387): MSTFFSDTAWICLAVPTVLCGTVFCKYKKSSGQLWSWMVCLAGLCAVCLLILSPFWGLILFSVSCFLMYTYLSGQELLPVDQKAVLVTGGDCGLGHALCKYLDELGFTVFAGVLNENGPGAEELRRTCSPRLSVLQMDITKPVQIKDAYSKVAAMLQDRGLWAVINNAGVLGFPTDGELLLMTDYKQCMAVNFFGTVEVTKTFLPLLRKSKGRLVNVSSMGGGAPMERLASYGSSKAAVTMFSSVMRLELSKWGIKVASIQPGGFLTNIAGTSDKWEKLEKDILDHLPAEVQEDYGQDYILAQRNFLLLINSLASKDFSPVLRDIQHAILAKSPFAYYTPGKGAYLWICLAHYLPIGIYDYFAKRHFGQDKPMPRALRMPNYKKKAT
Method: The manner in which IC50 was determined is described in “Efficacy of Preferred Inhibitors: VI. Enzymatic assay for types 1, 2, and 3 17β-HSD and types 1 and 3 3α-HSD”. […] numbers of IC50 are desirable. Blank means that a determination was not done. […]
Enzyme sources. 293 cells transiently transfected with expression vectors encoding types 1, 2 and 3 17β-HSD (Luu-The et al., J. Steroid Biochem. Molec. Biol., 55: 581-587, 1995), types 1 and 2 5α-reductase (Luu-The et al., J. Invest. Dermatol., 102: 221-226, 1994) and types 1 and 3 3α-HSD (Dufort et al. Biochem. Biophys. Res. Commun. 228: 474-479, 1996), using the calcium phosphate procedure (Kingston et al., In: Current Protocols in Molecular Biology. Edited by E. M. Ausbel, R. Brent, R. E. Kingston, D. D. Moore, J. G. Seidman, J. A. Smith, K. Struhl. John Wiley & Sons, New York, pp. 9.1.1-9.1.9, 1991; Luu-The et al., J. Invest. Dermatol., 102: 221-226, 1994). For assays using cell subfractions, cells were sonicated in 50 mM sodium phosphate buffer (pH 7.4), containing 20% glycerol and 1 mM EDTA and centrifuged at 10 000×g for 30 min before centrifugation for 100 000×g for 1 h to separate the mitochondrial and microsomal fractions, respectively. The cytosol fractions (100 000×g supernatant) was used to determine type 1 activity while the microsomal fraction (pellet at 100 000×g) was used for measurement of types 2 and 3 17β-HSD activities.
Incubation. The enzymatic reaction was carried out at 37° C. in 1 ml of 50 mM sodium phosphate buffer, pH 7.4, containing 20% glycerol, 1 mM EDTA, and 2 mM cofactors (NADPH or AND^+) for 1 h in the presence of 0.1 μM ^14C-labeled substrate: estrone and 4-dione for types 1 and […] 17β-HSD, respectively, testosterone for type 2 17β-HSD as well as types 1 and 2 5α-reductases, DHT for types 1 and 3 3α-HSD activities, and the indicated concentration of inhibitor.
Extraction of metabolites, migration on TLC and quantification were as described above for the assay of type 5 17β-HSD.

SMILES | % Inhibition Progesterone Receptor E^−6 (progesterone receptor; Table 4′, E^−6) | % Inhibition Progesterone Receptor E^−8 (progesterone receptor; Table 4′, E^−8) | IC50 [1] | inhibition ([1]; bracketed values) | other results
CN1C(=O)C=C[C@]2(C)C3CC[C@@]4(C)C(CC[C@@]45CCCC(=O)O5)C3CCC12 (stereo partly shown) [EM-1122-CS] |  |  |  |  | % Inhibition Progesterone Receptor E^−6 (progesterone receptor; Table 5 column 14, E^−6): 3%; % Inhibition Progesterone Receptor E^−8 (progesterone receptor; Table 5 column 14, E^−8): 0%; Inhibition Type 2 17β-HSD Activity [% Inh. at 3.10^−5 M] ([1]; Table 5 column 5, bracketed values, 3.10^−5 M): [90] %
CC1(C)CC[C@@]2(CCC3C4CCc5cc(F)ccc5C4CC[C@@]32C)OC1=O (stereo partly shown) [EM-1157-CS] | 5% | 2% | > 10 µM |  | 
CC12CCC3c4ccc(F)cc4CCC3C1CCC21CCCC(=O)O1 (stereo not shown) [EM-1170-CS] | 24% | 1% |  | 84% | 
COc1ccc(CC(=O)O[C@]2(C(C)=O)CCC3C4C=C(C)C5=CC(=O)C=C[C@]5(C)C4CC[C@@]32C)cc1 (stereo partly shown) [EM-1291] |  |  |  |  | % Inhibition Progesterone Receptor (progesterone receptor; E^−6): 33%; % Inhibition Progesterone Receptor (progesterone receptor; E^−8): 0%; Inhibition Type 2 17β-HSD Activity [% Inh.] ([1]; at 3.10^-8M): [67] %
CC1(C)CC[C@@]2(CC[C@H]3[C@@H]4CCc5c(cc(Br)c(O)c5Br)[C@H]4CC[C@@]32C)OC1=O [EM-1382-CS] | 0% | 2% |  |  | Inhibition Type 2 17β-HSD Activity [% Inh. at 3 · 10^−8M] ([1]; bracketed values): [70] %
COc1c(Br)cc2c(c1Br)CCC1C2CCC2(C)C1CCC21CCC(C)(C)C(=O)O1 (stereo not shown) [EM-1385-CS] | 2% | 2% | > 10 µM |  | 
CN(C)CCOc1ccc2c(c1)CCC1C2CCC2(C)C1CCC21CCC(C)(C)C(=O)O1 (stereo not shown) [EM-1389-CS] | 0% | 3% | > 10 µM |  | 
CC1(C)CCC2(CCC3C4CCc5cc(OCCN6CCCCC6)ccc5C4CCC32C)OC1=O [EM-1390-CS, 3-(N-piperidyl-ethyl)-1,3,5(10)-estratrien-17(R)-spiro-2′-(5′,5′-dimethyl-6′-oxo)-tetrahydropyran] | 2% | 0% | > 10 µM |  | 
CC1(C)CCC2(CCC3C4CCc5c(cc(Cl)c(O)c5Cl)C4CCC32C)OC1=O (stereo not shown) [EM-1391-CS] | 1% | 1% | > 10 µM |  | 
CC1(C)CCC2(CCC3C4CCc5c(cc(Cl)c(OS(C)(=O)=O)c5Cl)C4CCC32C)OC1=O (stereo not shown) [EM-1392-CS] | 2% | 2% | > 10 µM |  | 
COc1ccc2c(c1)C(=O)CC1C2CC[C@@]2(C)C1CC[C@@]21CCC(C)(C)C(=O)O1 (stereo partly shown) [EM-1394] | 4% | 2% | > 10 µM |  | 
CC1(C)CC[C@@]2(CCC3C4CCc5cc(C(=O)O)ccc5C4CC[C@@]32C)OC1=O (stereo partly drawn) [EM-1401, 3-Carboxy-1,3,5(10)-estratrien-17(R)-spiro-2′-(5′,5′-dimethyl-6′-oxo)tetrahydropyran] | 0% | 0% |  | 76% | 
COCCOc1cc2c(cc1C(=O)O)C1CCC3(C)C(CCC34CCC(C)(C)C(=O)O4)C1CC2 [EM-1405, 2-Carboxy-3-(2″-methoxyethyloxy)-1,3,5(10)-estratrien-17(R)-spiro-2′-(5′,5′-dimethyl-6′-oxo)tetrahydropyran] | 0% | 0% | > 10 µM |  | 
CC1(C)CC[C@@]2(CCC3C4CCc5cc6oncc6cc5C4CC[C@@]32C)OC1=O (stereo partly drawn) [EM-1407-CS, 1,3,5(10)-estratrien-(2,3-oximino)-17(R)-spiro-2′-(5′,5′-dimethyl-6′-oxo)tetrahydropyran] | 3% | 0% |  | 68% | 
COCCOc1ccc2c(c1)C(=O)CC1C2CCC2(C)C1CCC21CCC(C)(C)C(=O)O1 (stereo not shown) [EM-1408-CS] | 0% | 0% |  | 66% | 
COc1cc2c(cc1C)C1CCC3(C)C(CCC34CCC(C)(C)C(=O)O4)C1CC2 (stereo not shown) [EM-1412-CS] | 0% | 0% | > 10 µM |  | 
COCCOc1cc2c(cc1C(F)(F)F)[C@H]1CC[C@@]3(C)[C@@H](CC[C@@]34CCC(C)(C)C(=O)O4)[C@@H]1CC2 [EM-1438, 3-(2′-Methoxyethoxy)-2-trifluoromethyl-1,3,5(10)-estratrien-17(R)-spiro-2′-(5′,5′-dimethyl-6′-oxo)tetrahydropyran] | 0% | 0% |  |  | Inhibition Type 2 17β-HSD Activity [% Inh. at 3 · 10^−8M] ([1]; bracketed values): [72] %
CC1(C)CCC2(CCC3C4CCc5cc(O)c(C#N)cc5C4CCC32C)OC1=O (stereo not shown) [EM-01645] |  |  |  | 38% | 
CC1(C)CCC2(CCC3C4CCc5cc(O)c(C(N)=O)cc5C4CCC32C)OC1=O (stereo not shown) [EM-01660] |  |  |  | 59% | 
CN(C)C(=O)c1cc2c(cc1O)CCC1C2CCC2(C)C1CCC21CCC(C)(C)C(=O)O1 (stereo not shown) [EM-01661-B] |  |  |  | 55% | 
COC(=O)c1cc2c(cc1O)CCC1C2CCC2(C)C1CCC21CCC(C)(C)C(=O)O1 (stereo not shown) [EM-01662] |  |  |  | 70% | 
